Experimental findings from ChEMBL document CHEMBL1201862, “PubChem BioAssay data set” (2004) are described below.

Each structure is given as a SMILES string.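 Method: 48-hour compound exposure of cells in 96-well plates, five concentrations, linear interpolation of endpoints. GI50 is the concentration that inhibits growth by half.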 Activity calls are given as the source filed them. Rule as the data show it: active = GI50 up to about 1.1 µM and inactive = higher. Bounds are passed on as bounds.

Some test systems named below: 786-0; A498; ACHN; HOP-62; IGROV-1; NCI-H226; NCI-H23; NCI-H460; NCI/ADR-RES; RPMI-8226; SK-MEL-2; SNB-75; SR; U-251; UACC-62; HT-29; KM12; MOLT-4; RXF 393.
Holding throughout (assay): NCI tumour cell line growth inhibition, 48 h

For the compound `O=C1OC(c2ccccc2)N(C(=O)c2ccccc2)C1Cc1ccc(OCc2ccccc2)cc1` (stereo not given), the GI50 in the assay with 786-0 was 33.1 µM (inactive); in the assay with A498 it was 4.67 µM (inactive); in the assay on ACHN it was 6.82 µM (inactive); in the assay with HOP-62 it was 9.42 µM (inactive); in the assay with IGROV-1, > 100 µM (inactive); in the assay on NCI-H226 it was > 100 µM (inactive). In addition, the GI50 in the assay with NCI-H23 was 36.7 µM (inactive); with NCI-H460, 60 µM (inactive); in the assay on NCI/ADR-RES, 19.9 µM (inactive); in the assay with RPMI-8226, 87.5 µM (inactive); in the assay with SK-MEL-2 it was 31.1 µM (inactive); with SNB-75, 15.7 µM (inactive). Besides, the results for the GI50 with SR, in the assay with U-251 and in the assay with UACC-62 were > 100 µM (inactive), > 100 µM (inactive) and 8.11 µM (inactive), respectively.

Take `COC(=O)C(=O)C(C(=O)C=C(C)C)C(=O)C(=O)Nc1ccc(Cl)cc1C` (stereo not given): the GI50 in the assay on 786-0, in the assay with A498, with ACHN, with HOP-62, with HT-29 and in the assay on IGROV-1 was > 100 µM (inactive) each time. Besides, the GI50 in the assay on KM12 is > 100 µM (inactive); in the assay with MOLT-4, > 100 µM (inactive); in the assay on NCI-H226, > 100 µM (inactive); in the assay with NCI-H23, > 100 µM (inactive); in the assay on NCI-H460, > 100 µM (inactive); in the assay with RPMI-8226, 70 µM (inactive). Moreover, the GI50 in the assay on RXF 393 was > 100 µM (inactive); in the assay on SK-MEL-2, > 100 µM (inactive); with SNB-75, > 100 µM (inactive); in the assay with SR, 23.3 µM (inactive); in the assay on U-251 it was > 100 µM (inactive); in the assay with UACC-62 it was > 100 µM (inactive).

Take `O=C(CCN1CCCCC1CCO)Nc1ccc2c(c1)C(=O)c1ccc(NC(=O)CCN3CCCCC3CCO)cc1C2=O` (stereo not given): the GI50 was 1.97 µM (inactive) with 786-0; 1.86 µM (inactive) in the assay with A498; 7.93 µM (inactive) with ACHN; 4.35 µM (inactive) with HOP-62; 5.52 µM (inactive) with HT-29; 4.9 µM (inactive) in the assay on IGROV-1. For the same compound, the GI50 in the assay on KM12 was 2.54 µM (inactive); in the assay on MOLT-4, 4.25 µM (inactive); in the assay on NCI-H226, 5.71 µM (inactive); in the assay on NCI-H23, 15 µM (inactive); in the assay on NCI-H460, 3.6 µM (inactive); with RPMI-8226, 4.45 µM (inactive). Moreover, the GI50 is 2.12 µM (inactive) with RXF 393; 2.49 µM (inactive) in the assay on SK-MEL-2; 2.81 µM (inactive) with SNB-75; 4.14 µM (inactive) in the assay with SR; 4.08 µM (inactive) in the assay with U-251; 2.44 µM (inactive) in the assay on UACC-62.

As for `CCn1c(-c2cc3ccccc3cc2OC(C)=O)n[nH]c1=S`, the GI50 with 786-0 was 75.7 µM (inactive); in the assay with A498, 25.8 µM (inactive); with ACHN it was 35.8 µM (inactive); with HOP-62 it was 57.3 µM (inactive); in the assay with HT-29, 30.4 µM (inactive); in the assay with IGROV-1, 39.6 µM (inactive). The GI50 is 27.6 µM (inactive) in the assay with KM12; 18.7 µM (inactive) in the assay on MOLT-4; 38.6 µM (inactive) in the assay with NCI-H226; 30.5 µM (inactive) with NCI-H23; 24.7 µM (inactive) in the assay on NCI-H460; 21.2 µM (inactive) with NCI/ADR-RES. Further, the GI50 was 18.7 µM (inactive) with RPMI-8226; 11.1 µM (inactive) in the assay on RXF 393; 18.2 µM (inactive) in the assay on SK-MEL-2; 0.624 µM (active) in the assay with SR; 20.2 µM (inactive) in the assay on U-251.

As for `Nc1nc(-c2ccco2)cc(-c2ccco2)n1`, the GI50 with 786-0, with ACHN, with HOP-62, with HT-29, in the assay on IGROV-1 and in the assay with KM12 was > 100 µM (inactive) in each case. In addition, the GI50 in the assay on MOLT-4 was > 100 µM (inactive); with NCI-H226, 71.3 µM (inactive); in the assay on NCI-H23, > 100 µM (inactive); in the assay on NCI-H460 it was > 100 µM (inactive); in the assay on RPMI-8226, > 100 µM (inactive); in the assay on RXF 393, > 100 µM (inactive). Further, the GI50 in the assay on SK-MEL-2 is > 100 µM (inactive); with SNB-75, 64.1 µM (inactive); with SR, > 100 µM (inactive); in the assay on U-251, > 100 µM (inactive); in the assay with UACC-62 it was > 100 µM (inactive).

`Cn1ncnc1CCc1ccccc1`: the GI50 with 786-0, with A498, with ACHN, in the assay on HOP-62, in the assay on HT-29 and with IGROV-1 was > 100 µM (inactive) throughout. The GI50 in the assay on KM12, in the assay on MOLT-4, with NCI-H226, with NCI-H23, with NCI-H460 and in the assay on RPMI-8226 was > 100 µM (inactive) throughout. Also, the GI50 with RXF 393, in the assay with SK-MEL-2, in the assay with SNB-75, with SR, with U-251 and in the assay with UACC-62 was > 100 µM (inactive) each time.

For the compound `COc1ccc(O)cc1C=O`, the GI50 in the assay on 786-0, in the assay on A498, in the assay on ACHN, with HOP-62, in the assay on HT-29 and in the assay on IGROV-1 was > 100 µM (inactive) each time. For the same compound, the GI50 was 23.8 µM (inactive) with KM12; 67.6 µM (inactive) in the assay with MOLT-4; > 100 µM (inactive) in the assay on NCI-H23; > 100 µM (inactive) in the assay on NCI-H460; 60.1 µM (inactive) in the assay on RPMI-8226; > 100 µM (inactive) with RXF 393. Further, the results for the GI50 with SR, in the assay on U-251 and with UACC-62 were 18.8 µM (inactive), > 100 µM (inactive) and 32.7 µM (inactive), respectively.

For `Cc1c(-c2nnc(-c3ccc(Cl)cc3)o2)c(=O)n(-c2ccccc2)n1C`, the GI50 in the assay on 786-0, with A498, in the assay with ACHN, in the assay with HOP-62, with HT-29 and in the assay with IGROV-1 was > 100 µM (inactive) each time. The GI50 in the assay on KM12, in the assay with MOLT-4, in the assay on NCI-H226, in the assay with NCI-H23, in the assay on NCI-H460 and with RPMI-8226 was > 100 µM (inactive) throughout. Also, the GI50 in the assay with RXF 393, in the assay on SK-MEL-2, in the assay with SNB-75, with SR, with U-251 and with UACC-62 was > 100 µM (inactive) throughout.

For `CCCCCC/C=C1\CCC(CN2CCCC2)C1=O` (stereo not given), the GI50 in the assay with 786-0 was 2.61 µM (inactive); in the assay with A498 it was 22.8 µM (inactive); with ACHN, 18.3 µM (inactive); in the assay with HOP-62 it was 18.7 µM (inactive); in the assay on HT-29, 13.9 µM (inactive); with IGROV-1 it was 19.7 µM (inactive). Moreover, the GI50 in the assay with KM12 was 3.56 µM (inactive); in the assay with MOLT-4 it was 3.76 µM (inactive); in the assay on NCI-H226, 19.1 µM (inactive); in the assay with NCI-H23, 16.9 µM (inactive); with NCI-H460, 24.6 µM (inactive); in the assay on RPMI-8226 it was 2.01 µM (inactive). Besides, the GI50 was 19.4 µM (inactive) in the assay on RXF 393; 15.8 µM (inactive) with SK-MEL-2; 20.9 µM (inactive) with SNB-75; 2.99 µM (inactive) in the assay with SR; 15.6 µM (inactive) with U-251; 18.2 µM (inactive) in the assay with UACC-62.

For the compound `COC1=C(C)C(=O)c2c(cc3c(c2O)C(C)(CCC=C(C)C)C(C)O3)C1=O` (stereo not given), the GI50 was > 100 µM (inactive) with 786-0; 16.3 µM (inactive) in the assay on A498; > 100 µM (inactive) in the assay with ACHN; 18.2 µM (inactive) with HOP-62; 37 µM (inactive) in the assay on HT-29; > 100 µM (inactive) in the assay on IGROV-1. Moreover, the GI50 in the assay with KM12 is > 55.7 µM (inactive); in the assay with MOLT-4, > 100 µM (inactive); in the assay on NCI-H226, 17.6 µM (inactive); with NCI-H23, 9.71 µM (inactive); with NCI-H460, 14.1 µM (inactive); in the assay with RPMI-8226, > 100 µM (inactive). Further, the GI50 in the assay with RXF 393 was > 100 µM (inactive); in the assay with SK-MEL-2, 30.2 µM (inactive); in the assay with SNB-75, 19.9 µM (inactive); in the assay on SR, > 85.7 µM (inactive); in the assay with U-251, > 44.6 µM (inactive); with UACC-62 it was 22.3 µM (inactive).

In the case of `COC(=O)CC[C@]12C[C@]13CC[C@]1(C)C4C(C)C[C@]5(CC(C)C(=O)O5)OC4CC1(C)C3CCC2C(C)(C)O` (stereo not given in full), the GI50 was > 100 µM (inactive) in the assay with 786-0; > 100 µM (inactive) with A498; 88.3 µM (inactive) in the assay on ACHN; 45.6 µM (inactive) with HOP-62; > 100 µM (inactive) in the assay on HT-29; 65.6 µM (inactive) in the assay on IGROV-1. Also, the GI50 was 48.3 µM (inactive) in the assay with KM12; 97.3 µM (inactive) in the assay with NCI-H23; 68.7 µM (inactive) with NCI-H460; 25.4 µM (inactive) in the assay with RPMI-8226; 46.8 µM (inactive) in the assay on RXF 393; 26.7 µM (inactive) with SK-MEL-2. Moreover, the GI50 with SNB-75 is 75 µM (inactive); with SR, 42.2 µM (inactive); in the assay with U-251, 62.2 µM (inactive); in the assay with UACC-62, > 10 µM (inactive).

On to `Oc1c2c(nc3cc4c(cc13)OCO4)-c1ccccc1CC2`, for which the GI50 in the assay on 786-0, in the assay on A498, in the assay on ACHN, with HOP-62, with HT-29 and in the assay on IGROV-1 was > 100 µM (inactive) throughout. Besides, the GI50 in the assay with MOLT-4 was > 100 µM (inactive); in the assay with NCI-H226, > 100 µM (inactive); in the assay on NCI-H23, > 100 µM (inactive); in the assay on NCI-H460, > 100 µM (inactive); in the assay on RPMI-8226, > 100 µM (inactive); in the assay on RXF 393, 78 µM (inactive). In addition, the GI50 with SK-MEL-2 is > 100 µM (inactive); in the assay with SNB-75 it was 23.6 µM (inactive); in the assay on SR, > 100 µM (inactive); with U-251, > 100 µM (inactive); in the assay on UACC-62, > 100 µM (inactive).
